Key:
Assay type in all cases: in vivo
[1] = system: wheat (Triticum aestivum); assay: Test A postemergence application, visual injury rating; conditions: 0 to 100 scale, 0 no effect, 100 complete control
Source text: (§1) Seeds of plant species selected from barnyardgrass (Echinochloa crus-galli), kochia (Kochia scoparia), ragweed (common ragweed, Ambrosia elatior), ryegrass, It. (Italian ryegrass, Lolium multiflorum), foxtail, giant (giant foxtail, Setaria faberii), and pigweed (Amaranthus retroflexus), were planted into a blend of loam soil and sand and treated preemergence with a directed soil spray using test chemicals formulated in a non-phytotoxic solvent mixture which included a surfactant.
(§2) At the same time, plants selected from these weed species and also wheat (Triticum aestivum), corn (Zea mays), blackgrass (Alopecurus myosuroides), and galium (catchweed bedstraw, Galium aparine), were planted in pots containing the same blend of loam soil and sand and treated with postemergence applications of test chemicals formulated in the same manner Plants ranged in height from 2 to 10 cm and were in the one- to two-leaf stage for the postemergence treatment. Treated plants and untreated controls were maintained in a greenhouse for approximately 10 d, after which time all treated plants were compared to untreated controls and visually evaluated for injury. Plant response ratings, summarized in Table A, are based on a 0 to 100 scale where 0 is no effect and 100 is complete control. A dash (-) response means no test result.

[2] = system: corn (Zea mays); assay: as above; conditions: 0 to 100 scale, 0 no effect, 100 complete control
Source text: as §1, §2

[3] = system: kochia (Kochia scoparia); assay: as above; conditions: 0 to 100 scale, 0 no effect, 100 complete control
Source text: as §1, §2

[4] = system: galium (catchweed bedstraw, Galium aparine); assay: as above; conditions: 0 to 100 scale, 0 no effect, 100 complete control
Source text: as §1, §2

[5] = system: foxtail, giant (giant foxtail, Setaria faberii); assay: as above; conditions: 0 to 100 scale, 0 no effect, 100 complete control
Source text: as §1, §2

[6] = system: pigweed (Amaranthus retroflexus); assay: as above; conditions: 0 to 100 scale, 0 no effect, 100 complete control
Source text: as §1, §2

[7] = system: ryegrass, It. (Italian ryegrass, Lolium multiflorum); assay: as above; conditions: 0 to 100 scale, 0 no effect, 100 complete control
Source text: as §1, §2

[8] = system: barnyardgrass (Echinochloa crus-galli); assay: as above; conditions: 0 to 100 scale, 0 no effect, 100 complete control
Source text: as §1, §2

[9] = system: ragweed (common ragweed, Ambrosia elatior); assay: as above; conditions: 0 to 100 scale, 0 no effect, 100 complete control
Source text: as §1, §2

[10] = system: blackgrass (Alopecurus myosuroides); assay: as above; conditions: 0 to 100 scale, 0 no effect, 100 complete control
Source text: as §1, §2

[11] = system: ducksalad (Heteranthera limosa); assay: Test B flooded paddy test, visual rating; conditions: Flood, 250 g ai/ha, applied to paddy water, rated after 13 to 15 d
Description: (§3) Plant species in the flooded paddy test selected from rice (Oryza sativa), sedge, umbrella (small-flower umbrella sedge, Cyperus difformis), ducksalad (Heteranthera limosa), and barnyardgrass (Echinochloa crus-galli) were grown to the 2-leaf stage for testing. At time of treatment, test pots were flooded to 3 cm above the soil surface, treated by application of test compounds directly to the paddy water, and then maintained at that water depth for the duration of the test. Treated plants and controls were maintained in a greenhouse for 13 to 15 d, after which time all species were compared to controls and visually evaluated. Plant response ratings, summarized in Table B, are based on a scale of 0 to 100 where 0 is no effect and 100 is complete control. A dash (-) response means no test result.

[12] = system: barnyardgrass (Echinochloa crus-galli); assay: Test B flooded paddy test, visual rating; conditions: Flood, 250 g ai/ha, applied to paddy water, rated after 13 to 15 d
Description: as §3

[13] = system: rice (Oryza sativa); assay: Test B flooded paddy test, visual rating; conditions: Flood, 250 g ai/ha, applied to paddy water, rated after 13 to 15 d
Description: as §3

[14] = system: sedge, umbrella (small-flower umbrella sedge, Cyperus difformis); assay: Test B flooded paddy test, visual rating; conditions: Flood, 250 g ai/ha, applied to paddy water, rated after 13 to 15 d
Description: as §3

[15] = system: kochia (Kochia scoparia); assay: Test A preemergence, directed soil spray, visual injury rating; conditions: 0 is no effect, 100 is complete control
Source text: as §1, §2

[16] = system: foxtail, giant (giant foxtail, Setaria faberii); assay: as above; conditions: 0 is no effect, 100 is complete control
Source text: as §1, §2

[17] = system: pigweed (Amaranthus retroflexus); assay: as above; conditions: 0 is no effect, 100 is complete control
Source text: as §1, §2

[18] = system: ryegrass, It. (Italian ryegrass, Lolium multiflorum); assay: as above; conditions: 0 is no effect, 100 is complete control
Source text: as §1, §2

[19] = system: barnyardgrass (Echinochloa crus-galli); assay: as above; conditions: 0 is no effect, 100 is complete control
Source text: as §1, §2

[20] = system: ragweed (common ragweed, Ambrosia elatior); assay: as above; conditions: 0 is no effect, 100 is complete control
Source text: as §1, §2

| SMILES | Wheat plant response rating ([1]; 125 g ai/ha) | Corn plant response rating ([2]; 125 g ai/ha) | Kochia plant response rating ([3]; 125 g ai/ha) | Galium plant response rating ([4]; 125 g ai/ha) | Foxtail, Giant plant response rating ([5]; 125 g ai/ha) | Pigweed plant response rating ([6]; 125 g ai/ha) | Ryegrass, It. plant response rating ([7]; 125 g ai/ha) | Barnyardgrass plant response rating ([8]; 125 g ai/ha) | Ragweed plant response rating ([9]; 125 g ai/ha) | Blackgrass plant response rating ([10]; 125 g ai/ha) | Ducksalad plant response rating (0 to 100 scale, 0 is no effect, 100 is complete control) [11] | Barnyardgrass plant response rating (0 to 100 scale, 0 is no effect, 100 is complete control) [12] | Rice plant response rating (0 to 100 scale, 0 is no effect, 100 is complete control) [13] | Sedge, Umbrella plant response rating (0 to 100 scale, 0 is no effect, 100 is complete control) [14] | Plant response rating (0 to 100 scale), Kochia ([15]; 125 g ai/ha) | Plant response rating (0 to 100 scale), Foxtail, Giant ([16]; 125 g ai/ha) | Plant response rating (0 to 100 scale), Pigweed ([17]; 125 g ai/ha) | Plant response rating (0 to 100 scale), Ryegrass, It. ([18]; 125 g ai/ha) | Plant response rating (0 to 100 scale), Barnyardgrass ([19]; 125 g ai/ha) | Plant response rating (0 to 100 scale), Ragweed ([20]; 125 g ai/ha) | also measured |
| --- | --- | --- | --- | --- | --- | --- | --- | --- | --- | --- | --- | --- | --- | --- | --- | --- | --- | --- | --- | --- | --- |
| COc1ncc(-c2c(O)c(C)nn(C)c2=O)c2ccccc12 [Compound 16] | 0 | 0 | 70 | 70 | 0 | 40 | 90 | 0 | 30 | 0 | 0 | 0 | 0 | 0 | 40 | 0 | 30 | 80 | 0 | 30 | Wheat plant response rating ([1]; 500 g ai/ha): 0; Corn plant response rating ([2]; 500 g ai/ha): 0; Kochia plant response rating ([3]; 500 g ai/ha): 100; Galium plant response rating ([4]; 500 g ai/ha): 100; Foxtail, Giant plant response rating ([5]; 500 g ai/ha): 0; Pigweed plant response rating ([6]; 500 g ai/ha): 70; Ryegrass, It. plant response rating ([7]; 500 g ai/ha): 100; Barnyardgrass plant response rating ([8]; 500 g ai/ha): 10; Ragweed plant response rating ([9]; 500 g ai/ha): 70; Blackgrass plant response rating ([10]; 500 g ai/ha): 20; Plant response rating (0 to 100 scale), Kochia ([15]; 500 g ai/ha): 100; Plant response rating (0 to 100 scale), Foxtail, Giant ([16]; 500 g ai/ha): 0; Plant response rating (0 to 100 scale), Pigweed ([17]; 500 g ai/ha): 100; Plant response rating (0 to 100 scale), Ryegrass, It. ([18]; 500 g ai/ha): 90; Plant response rating (0 to 100 scale), Barnyardgrass ([19]; 500 g ai/ha): 0; Plant response rating (0 to 100 scale), Ragweed ([20]; 500 g ai/ha): 70 |
| CC(=O)Oc1c(C)nn(C)c(=O)c1-c1ccc(Cl)c2ccsc12 [Compound 51] | 0 | 0 | 90 | 100 | 0 | 60 | 100 | 10 | 50 | 10 | 0 | 0 | 0 | 0 | 20 | 0 | 60 | 100 | 20 | 0 | Wheat plant response rating ([1]; 31 g ai/ha): 0; Corn plant response rating ([2]; 31 g ai/ha): 0; Kochia plant response rating ([3]; 31 g ai/ha): 70; Galium plant response rating ([4]; 31 g ai/ha): 100; Foxtail, Giant plant response rating ([5]; 31 g ai/ha): 0; Pigweed plant response rating ([6]; 31 g ai/ha): 50; Ryegrass, It. plant response rating ([7]; 31 g ai/ha): 70; Barnyardgrass plant response rating ([8]; 31 g ai/ha): 0; Ragweed plant response rating ([9]; 31 g ai/ha): 0; Blackgrass plant response rating ([10]; 31 g ai/ha): 0; Plant response rating (0 to 100 scale), Kochia ([15]; 31 g ai/ha): 0; Plant response rating (0 to 100 scale), Foxtail, Giant ([16]; 31 g ai/ha): 0; Plant response rating (0 to 100 scale), Pigweed ([17]; 31 g ai/ha): 0; Plant response rating (0 to 100 scale), Ryegrass, It. ([18]; 31 g ai/ha): 60; Plant response rating (0 to 100 scale), Barnyardgrass ([19]; 31 g ai/ha): 0; Plant response rating (0 to 100 scale), Ragweed ([20]; 31 g ai/ha): 0 |
